From patent publication US20230024108A1, “ADENOSINE A2A RECEPTOR ANTAGONISTS” (Teon Therapeutics, Inc., priority 2019, published 2023)

How the values were obtained:
human A2A AdoR = molecular target: T1, human A2A AdoR (Homo sapiens, UniProt P29274); test: Adenosine receptor binding assay, A2A ([3H]-CGS-21680); settings: membranes of HEK-293 cells expressing human A2A AdoR; read-out: hA2A IC50
T1 construct: purchased PerkinElmer RBHA2AM400UA
Procedure: (§1) Membranes prepared from CHO-K1 cells stably expressing Human AiAdoR (ES-010-M400UA), HEK-293 cells stably expressing human A2A AdoR (RBHA2AM400UA), HEK-293 cells stably expressing human A2B AdoR (ES-013-M400UA) and CHO-K1 cells stably expressing Human A3 AdoR (ES-012-M400UA) were purchased from PerkinElmer (Waltham, Mass., USA) and stored at −80° C. until use. Binding assays are performed using the radioligands. The final concentrations are as follows: [3H]-DPCPX (PerkinElmer, NET974001MC) at 1 nM for A1AdoR; [^3H]-CGS-21680 (PerkinElmer, NET1021250UC) at 6 nM for A2AAdoR, [3H]-DPCPX (PerkinElmer, NET974001MC) at 8 nM for A2BAdoR; [^3H]-HEMADO (ARC, Cat: ART1456) at 1 nM for A3AdoR. Testing compounds are diluted with DMSO to make 8-point 4-fold serial dilution. Nonspecific binding (Low control: LC) and total binding (High control: HC) are determined in the presence or absence of saturated cold ligand. Specific binding is calculated by subtracting nonspecific binding from total binding. All assays are performed in a final volume of 200 μl containing 1 μl of the test compound in DMSO, 100 μl of membrane preparation, and 99 μl of the radioligand in assay buffer (A1AdoR: 25 mM HEPES pH 7.4, 5 mM MgCl2, 1 mM CaCl2), 100 mM NaCl; A2AAdoR: 50 mM Tris HCl pH 7.4, 10 mM MgCl2, 1 mM EDTA; A2BAdoR: 50 mM HEPES pH 7.0, 5 mM MgCl2, 1 mM EDTA; A3AdoR: 25 HEPES pH 7.4, 10 mM MgCl2, 1 mM CaCl2), 0.5% BSA). The incubation is performed at room temperature with shaking at 300 rpm for 1 hour for A1AdoR, A2BAdoR and A3AdoR and 2 hours for A2AAdoR. After the incubation, the assay mixture is filtered through 96 GF/C filter plates (Perkin Elmer #6005174) using Perkin Elmer Filtermate Harvester, and then washed four times with ice-cold washing buffer (A1AdoR: 25 mM HEPES pH 7.4, 5 mM MgCl2, 1 mM CaCl2), 100 mM NaCl; A2AAdoR: 50 mM Tris HCl pH 7.4, 154 mM NaCl; A2BAdoR: 50 mM HEPES pH 6.5, 5 mM MgCl2, 1 mM EDTA, 0.2% BSA; A3AdoR: 50 mM Tris HCl pH 7.4). The filters are dried for 1 hour at 50° C. and [^3H] trapped on filter counted for radioactivity in Perkin Elmer Microscint 20 cocktail (#6013329) using Perkin Elmer MicroBeta2 Reader. The results are expressed as a percent inhibition of the control radioligand specific binding calculated using the following equation: % Inhibition=(1−(Assay well-Average_LC)/(Average_HC−Average_LC))×100%. Data are analyzed and IC50 is calculated using GraphPad Prism 5 and the model “log(inhibitor) vs. response—Variable slope”. The binding affinity of the compounds is determined by using the Cheng and Prusoff equation Ki=IC50/(1+[radioligand]/Kd).

A1AdoR = molecular target: T2, A1AdoR (Homo sapiens, UniProt P30542); test: Adenosine receptor binding assay, A1 ([3H]-DPCPX); settings: ratio A1 vs A2A binding
T2 construct: purchased PerkinElmer ES-010-M400UA
T2 sequence (P30542 1-326): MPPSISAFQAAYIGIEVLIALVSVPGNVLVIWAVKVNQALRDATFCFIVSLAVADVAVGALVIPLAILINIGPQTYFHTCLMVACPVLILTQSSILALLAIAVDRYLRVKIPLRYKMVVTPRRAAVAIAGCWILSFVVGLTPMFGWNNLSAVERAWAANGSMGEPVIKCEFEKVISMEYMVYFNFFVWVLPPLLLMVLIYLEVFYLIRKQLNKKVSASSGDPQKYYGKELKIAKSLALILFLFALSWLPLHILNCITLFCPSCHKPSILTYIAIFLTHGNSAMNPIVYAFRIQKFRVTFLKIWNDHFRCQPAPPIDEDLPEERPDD
Procedure: as §1

T1 sequence (P29274 whole entry): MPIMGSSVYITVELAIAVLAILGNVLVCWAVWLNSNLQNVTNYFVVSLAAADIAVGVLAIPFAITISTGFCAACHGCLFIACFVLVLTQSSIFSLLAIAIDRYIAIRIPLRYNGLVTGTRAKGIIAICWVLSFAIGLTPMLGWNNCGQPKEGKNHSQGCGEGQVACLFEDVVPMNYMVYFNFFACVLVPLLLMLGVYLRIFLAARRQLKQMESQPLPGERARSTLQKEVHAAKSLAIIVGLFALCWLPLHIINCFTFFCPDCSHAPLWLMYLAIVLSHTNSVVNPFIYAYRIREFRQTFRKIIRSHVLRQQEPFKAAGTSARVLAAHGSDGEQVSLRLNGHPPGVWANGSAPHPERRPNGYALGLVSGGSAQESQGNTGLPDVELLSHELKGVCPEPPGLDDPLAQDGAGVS

IC50 (human A2A AdoR) | SMILES | A1/A2A Selectivity (A1AdoR)
≤ 20 nM | Cc1c(C(N)=O)n(CCN2CCN(c3ccc(C#N)cc3F)CC2)c2nc(N)n3nc(-c4ccccn4)nc3c12 [5-amino-7-(2-(4-(4-cyano-2-fluorophenyl)piperazin-1-yl)ethyl)-9-methyl-2-(pyridin-2-yl)-7H-pyrrolo[3,2-e][1,2,4]triazolo[1,5-c]pyrimidine-8-carboxamide] | b (greater than 100 but less than or equal to 1000)
≤ 20 nM | Cc1c(C(=O)O)n(CCN2CCN(c3ccc(C#N)cc3F)CC2)c2nc(N)n3nc(-c4ccccn4)nc3c12 [5-amino-7-(2-(4-(4-cyano-2-fluorophenyl)piperazin-1-yl)ethyl)-9-methyl-2-(pyridin-2-yl)-7H-pyrrolo[3,2-e][1,2,4]triazolo[1,5-c]pyrimidine-8-carboxylic acid] | b (greater than 100 but less than or equal to 1000)
≤ 20 nM | Cc1cc(N2CCN(CCn3c(C(N)=O)c(C)c4c3nc(N)n3nc(-c5ccccn5)nc43)CC2)c(F)cn1 [5-amino-7-(2-(4-(5-fluoro-2-methylpyridin-4-yl)piperazin-1-yl)ethyl)-9-methyl-2-(pyridin-2-yl)-7H-pyrrolo[3,2-e][1,2,4]triazolo[1,5-c]pyrimidine-8-carboxamide] | c (greater than 0 but less than or equal to 100)
≤ 20 nM | Cc1noc2cc(F)c(N3CCN(CCn4c(C(N)=O)c(C)c5c4nc(N)n4nc(-c6ccccn6)nc54)CC3)cc12 [5-amino-7-(2-(4-(6-fluoro-3-methylbenzo[d]isoxazol-5-yl)piperazin-1-yl)ethyl)-9-methyl-2-(pyridin-2-yl)-7H-pyrrolo[3,2-e][1,2,4]triazolo[1,5-c]pyrimidine-8-carboxamide] | a (greater than 1000)
≤ 20 nM | N#Cc1ccc(N2CCN(CCn3c(C(N)=O)c(Cl)c4c3nc(N)n3nc(-c5ccccn5)nc43)CC2)c(F)c1 [5-amino-9-chloro-7-(2-(4-(4-cyano-2-fluorophenyl)piperazin-1-yl)ethyl)-2-(pyridin-2-yl)-7H-pyrrolo[3,2-e][1,2,4]triazolo[1,5-c]pyrimidine-8-carboxamide] | a (greater than 1000)
≤ 20 nM | Cc1cc(N2CCN(CCn3c(C(N)=O)c(Cl)c4c3nc(N)n3nc(-c5ccccn5)nc43)CC2)c(F)cn1 [5-amino-9-chloro-7-(2-(4-(5-fluoro-2-methylpyridin-4-yl)piperazin-1-yl)ethyl)-2-(pyridin-2-yl)-7H-pyrrolo[3,2-e][1,2,4]triazolo[1,5-c]pyrimidine-8-carboxamide] | c (greater than 0 but less than or equal to 100)
≤ 20 nM | Cc1cc(N2CCN(CCn3c(C(=O)O)c(Cl)c4c3nc(N)n3nc(-c5ccccn5)nc43)CC2)c(F)cn1 [5-amino-9-chloro-7-(2-(4-(5-fluoro-2-methylpyridin-4-yl)piperazin-1-yl)ethyl)-2-(pyridin-2-yl)-7H-pyrrolo[3,2-e][1,2,4]triazolo[1,5-c]pyrimidine-8-carboxylic acid] | a (greater than 1000)

Continued, compound first:

SMILES | IC50 (human A2A AdoR) | A1/A2A Selectivity (A1AdoR)
NC(=O)c1c(Cl)c2c(nc(N)n3nc(-c4ccccn4)nc23)n1CCN1CCN(c2ccncc2)CC1 [5-amino-9-chloro-2-(pyridin-2-yl)-7-(2-(4-(pyridin-4-yl)piperazin-1-yl)ethyl)-7H-pyrrolo[3,2-e][1,2,4]triazolo[1,5-c]pyrimidine-8-carboxamide] | ≤ 20 nM | c (greater than 0 but less than or equal to 100)
Nc1nc2c(c(Cl)c(C(=O)O)n2CCN2CCN(c3ccncc3)CC2)c2nc(-c3ccccn3)nn12 [5-amino-9-chloro-2-(pyridin-2-yl)-7-(2-(4-(pyridin-4-yl)piperazin-1-yl)ethyl)-7H-pyrrolo[3,2-e][1,2,4]triazolo[1,5-c]pyrimidine-8-carboxylic acid] | 20 to 100 nM | b (greater than 100 but less than or equal to 1000)
NC(=O)c1c(Cl)c2c(nc(N)n3nc(-c4ccccn4)nc23)n1CCN1CCN(c2ncccn2)CC1 [5-amino-9-chloro-2-(pyridin-2-yl)-7-(2-(4-(pyrimidin-2-yl)piperazin-1-yl)ethyl)-7H-pyrrolo[3,2-e][1,2,4]triazolo[1,5-c]pyrimidine-8-carboxamide] | ≤ 20 nM | c (greater than 0 but less than or equal to 100)
Nc1nc2c(c(Cl)c(C(=O)O)n2CCN2CCN(c3ncccn3)CC2)c2nc(-c3ccccn3)nn12 [5-amino-9-chloro-2-(pyridin-2-yl)-7-(2-(4-(pyrimidin-2-yl)piperazin-1-yl)ethyl)-7H-pyrrolo[3,2-e][1,2,4]triazolo[1,5-c]pyrimidine-8-carboxylic acid] | 20 to 100 nM | c (greater than 0 but less than or equal to 100)
Cc1cnc2c(c1)CN(CCn1c(C(N)=O)c(Cl)c3c1nc(N)n1nc(-c4ccccn4)nc31)CC2 [5-amino-9-chloro-7-(2-(3-methyl-7,8-dihydro-1,6-naphthyridin-6(5H)-yl)ethyl)-2-(pyridin-2-yl)-7H-pyrrolo[3,2-e][1,2,4]triazolo[1,5-c]pyrimidine-8-carboxamide] | ≤ 20 nM | c (greater than 0 but less than or equal to 100)
Nc1nc2c(c(Cl)c(C(=O)O)n2CCN2CCN(c3ccc(F)cc3F)CC2)c2nc(-c3ccccn3)nn12 [5-amino-9-chloro-7-(2-(4-(2,4-difluorophenyl)piperazin-1-yl)ethyl)-2-(pyridin-2-yl)-7H-pyrrolo[3,2-e][1,2,4]triazolo[1,5-c]pyrimidine-8-carboxylic acid] | ≤ 20 nM | b (greater than 100 but less than or equal to 1000)
NC(=O)c1c(Cl)c2c(nc(N)n3nc(-c4ccccn4)nc23)n1CCN1CCN(c2cc(-c3ncco3)ccc2F)CC1 [5-amino-9-chloro-7-(2-(4-(2-fluoro-5-(oxazol-2-yl)phenyl)piperazin-1-yl)ethyl)-2-(pyridin-2-yl)-7H-pyrrolo[3,2-e][1,2,4]triazolo[1,5-c]pyrimidine-8-carboxamide] | ≤ 20 nM | a (greater than 1000)
Nc1nc2c(c(Cl)c(C(=O)O)n2CCN2CCN(c3cc(-c4ncco4)ccc3F)CC2)c2nc(-c3ccccn3)nn12 [5-amino-9-chloro-7-(2-(4-(2-fluoro-5-(oxazol-2-yl)phenyl)piperazin-1-yl)ethyl)-2-(pyridin-2-yl)-7H-pyrrolo[3,2-e][1,2,4]triazolo[1,5-c]pyrimidine-8-carboxylic acid] | ≤ 20 nM | b (greater than 100 but less than or equal to 1000)
N#Cc1ccc(N2CCN(CCn3c(C(=O)O)c(Cl)c4c3nc(N)n3nc(-c5ccccn5)nc43)CC2)c(F)c1 [5-amino-9-chloro-7-(2-(4-(4-cyano-2-fluorophenyl)piperazin-1-yl)ethyl)-2-(pyridin-2-yl)-7H-pyrrolo[3,2-e][1,2,4]triazolo[1,5-c]pyrimidine-8-carboxylic acid] | ≤ 20 nM | b (greater than 100 but less than or equal to 1000)
